In patent US20250221936A1, “ENGINEERED HEMICHANNELS, ENGINEERED VESICLES, AND USES THEREOF” (VIRGINIA TECH INTELLECTUAL PROPERTIES, INC., priority 2018, published 2025):

How the values were obtained:
GST-Cx43 CT = target: T1, GST-Cx43 CT (Rattus norvegicus, UniProt P08050); assay: EDC cross-linking of kinase reaction mixtures, Cx43 CT; format: binding; settings: 5, 10 and 25 μM
T1 construct: pGEX-6-P2 Cx43 CT amino acids 255-382; made in house; host or cells: E. coli BL21
Protocol: To characterize the interaction between the Cx43 CT substrate and peptides, the in vitro kinase assay was performed as above with modification and the constituents then subjected to a cross-linking reaction. The assay buffer used was 20 mM 3-(N-morpholino) propanesulfonic acid (MOPS), pH 7.2. All other reagents present in the kinase reaction were maintained as described above. The reaction was allowed to proceed at 37° C. for 15 minutes. Afterwards, the carbodiimide crosslinker 1-Ethyl-3-(3-dimethylaminopropyl) carbodiimide HCl (EDC) (Thermo, 22980) was added to each solution for a final concentration of 20 mM. The solution was allowed to cross-link for one hour at room temperature. The reaction was stopped by the addition of 4×LDS loading buffer, boiled for 5 minutes and subsequently separated by PAGE. The resulting gel was stained in Coomassie brilliant blue (Sigma, B0770) for two hours and destained in a solution of 4% methanol 7% acetic acid overnight. Gel bands were subsequently excised for mass spectrometric analysis. For the direct interaction between protein and peptides, PBS, pH 7.5 was used as the coupling buffer. The protein (50 μg/ml) and peptide (25 μM) were allowed to react at room temperature for one hour before EDAC was added to the reaction mixture. The reaction was Western blotted for Cx43, GST or NeutroAvidin. […]

Cx43 Y313-A348 peptide [1] = target: T2, Cx43 Y313-A348 peptide (Rattus norvegicus, UniProt P08050); assay: SPR of captured aCT1 with Cx43 Y313-A348 peptide; format: binding; settings: unlinked Cx43 Y313-A348 peptide (25 µM)
T2 construct: made in house; host or cells: chemical synthesis
Protocol: (§1) FIGS. 28A-28D. […] (FIG. 28B) Schematic representation of the Cx43 Y313-A348 peptide synthesized for a binding surface surrogate 1 with linkable cysteine (Cys) on the amino terminus and CT. (FIG. 28C) Single letter amino acid sequence of Cx43 Y313-A348 peptide with predicted helix secondary structure underlined. (FIG. 28D) Surface Plasmon Resonance (SPR) analysis of substrate captured aCT1 (700-1000 RUs) binding recombinant Cx43 CT (100 µM, light grey), unlinked Cx43 Y313-A348 peptide (25 µM, black), and disulfide linked Cx43 Y313-A348 (25 µM, dark grey). […] Disulfide cross-linking Cx43 Y313-A348 into a looped conformation results in a loss of aCT1 binding, thus aCT1 interaction with this peptide requires a degree conformational flexibility. Cx43 Y313-A348 peptide can provide an assay for screening for novel Cx43 interacting drugs.
(§2) A […] peptide mimetic encompassing amino acids Y313 through A348 of the Cx43 CT was synthesized, containing the H1 and H2 a-helical regions (FIGS. 28A-28D). […] Cx43 Y313-A348 was designed to have cysteines at its NT and CT, which were used to disulfide cross-link the peptide into a cyclized conformation (FIG. 28B). […]

Cx43 Y313-A348 peptide [2] = assay: SPR of captured aCT1 with Cx43 Y313-A348 peptide; format: binding; settings: disulfide linked Cx43 Y313-A348 (25 µM)
Protocol: as §1, §2

silicon wafer implants = settings: 24 hours; cited from earlier work
cancer stem cells CSCs = assay: Cancer stem cell survival; format: cell-based
Text: In another example, JM peptides can selectively target cancer stem cells CSCs. JM2 specific interaction with microtubules concomitantly with a loss of Cx43/microtubule complexing and a decrease in cell-cell communication in CSCs derived from patient tumors was confirmed. […] Current research includes the development of JM2-loaded biodegradable nanoparticles for JM2 sustained delivery in preparation for future clinical trials. In sum, the Cx43 mimetic peptide JM2 represents a novel and potent therapeutic opportunity to target chemoresistant CSCs in cancer treatment. This was described in (Lamouille et al., targeting glioblastoma cancer stem cells with a novel Connexin43 mimetic peptide [abstract]. In: Proceedings of the American Association for Cancer Research Annual Meeting 2017; 2017 Apr. 1-5; Washington, DC. Philadelphia (PA): AACR; Cancer Res 2017;77 (13 Suppl): Abstract nr 4765. doi: 10.1158/1538-7445.AM2017-4765), which is incorporated by reference. Further results can indicate that cancer stem cells derived from other cancers respond similarly to JM peptides. […]

T1 sequence (P08050 255-382): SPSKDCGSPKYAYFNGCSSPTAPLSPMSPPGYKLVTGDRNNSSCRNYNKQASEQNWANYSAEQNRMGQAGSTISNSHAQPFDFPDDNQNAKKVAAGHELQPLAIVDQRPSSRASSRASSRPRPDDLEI
T2 sequence (P08050 with tags, fused parts or gaps): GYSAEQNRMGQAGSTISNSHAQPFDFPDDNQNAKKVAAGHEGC

| Sequence | EDC cross-linking to Cx43 CT (GST-Cx43 CT) | SPR interaction (Cx43 Y313-A348 peptide [1]) | SPR interaction (Cx43 Y313-A348 peptide [2]) | tissue reaction zone (silicon wafer implants) | viability and self-renewal of colon cancer stem cells (cancer stem cells CSCs) |
| --- | --- | --- | --- | --- | --- |
| RQPKIWFPNRRKPWKKRPRPDDLEI [alpha CT1] | covalently linked by EDC to Cx43 CT in a concentration-dependent manner | levels of interaction with aCT1 comparable to the full Cx43 CT sequence | complete loss of aCT1 binding | – | – |
| VFFKGVKDRVKGRSD [JM2] | – | – | – | substantially narrower tissue reaction zone | effectively reduced the viability and self-renewal of cancer stem cells from patients with colon cancer |
